According to patent US8173682B2, “Substituted pyridones as inhibitors of poly(ADP-ribose) polymerase (PARP)” (Aventis Pharmaceuticals Inc., priority 2004, dated 2012):
Structures can show the parent of a compound that is named as a salt.

Biological target: T1, recombinant human PARP (PARP1) (Homo sapiens, UniProt P09874)
T1 construct: Full length human PARP (PARP1) is assembled from PCR fragments; His6 tag with TEV site, from the pFastBac-HTb vector (own knowledge of the vector); made in house; host or cells: insect cells, baculovirus (Bac-to-Bac, Gibco-BRL)
Experiment: PARP enzyme assay, Method A (radioactivity or 'ELISA' enzyme assay with partially purified enzyme)
Format: biochemical
Conditions: recombinant human PARP preparation, radioactive or ELISA enzyme assay
Text: Two different methods are employed in determining the activity of the compounds of this invention in inhibiting the activity of PARP enzyme, designated as Method A and Method B respectively as set forth below.
Method A: Cloning and Expression, and Partial Purification of Recombinant Human PARP:
Full length human PARP (PARP1) is assembled from PCR fragments of a clone from a human brain cDNA library and two Incyte clones. The PARP gene (3046 bp) is sub-cloned into pFastBac-HTb vector to give PARP-pFastBac-HTb and the sequence of this clone is verified. PARP-pFastBac-HTb is expressed to obtain protein using the Bac-to-Bac expression protocol from Gibco-BRL. The recombinant virus generated is used to scale up the material for purification.
Cell pellets from cell broth of cells expressing PARP are treated with a cocktail of protease inhibitors and lysed by 4 freeze-thaw cycles. The material is suspended in 10 mM HEPES/0.1M NaCl/pH 7.2, stirred, and then centrifuged. A 40%-70% ammonium sulfate cut of protein pellet is obtained from the supernatant. The pellet is solubilized in 10 mM HEPES/pH 7.2 and centrifuged. The supernatant buffer is exchanged to 10 mM HEPES/pH 7.2/0.1M NaCl/25% glycerol by dialysis or with a desalting column. The enzyme preparation is stored at −20° C. until use.
The compounds of this invention are then tested with this enzyme preparation using either the radioactive enzyme assay or by the “ELISA” enzyme assay as set forth below.
Radioactivity Enzyme Assay:
Incorporation of radioactivity from labeled NAD into acid-precipitated protein is measured. The reaction mixture (volume 100 μL or 50 μL, in a test-tube or 96-well plate) contained 100 μg/mL calf thymus DNA (sonicated), 100 μg/mL histones, 100 mM Tris (pH 8.0), 1.0 mM DTT, 10 mM MgCl2, NAD (200 μM, 0.65 microcurie/mL), and varying amounts of enzyme. The reaction was incubated for 10 min at 37° C. or at room temperature for 60 min. The reaction was stopped and protein precipitated by addition of ice-cold trichloroacetic acid (TCA; 10% or 20% aqueous w/v). After brief storage in ice or at 4° C. for 2 hrs, the reaction mixture is filtered under vacuum through a glass fiber filter (2.5 cm disc, or 96-well filter plate). After washing with TCA and ethanol, the filter is dried and counted for tritium CPM after addition of scintillation fluid.
Incorporation of biotin-NAD into histone coated on plate is measured. A 96-well protein-binding EIA plate is coated with histone and blocked with bovine serum albumin. The reaction mixture (50 μL) contained DNA, buffer, enzyme, (test compound), and 250 μM of NAD and 5 μL of biotin-NAD (Trevigen). After reaction at room temperature the wells are washed and treated with Extravidin (Sigma). After incubation and washing color is developed with the peroxidase substrate TMB (Sigma). The TMB reaction is quenched with 2M sulfuric acid and the absorbance at 450 nm is read.

T1 sequence (P09874 whole entry, the tested form may be a part): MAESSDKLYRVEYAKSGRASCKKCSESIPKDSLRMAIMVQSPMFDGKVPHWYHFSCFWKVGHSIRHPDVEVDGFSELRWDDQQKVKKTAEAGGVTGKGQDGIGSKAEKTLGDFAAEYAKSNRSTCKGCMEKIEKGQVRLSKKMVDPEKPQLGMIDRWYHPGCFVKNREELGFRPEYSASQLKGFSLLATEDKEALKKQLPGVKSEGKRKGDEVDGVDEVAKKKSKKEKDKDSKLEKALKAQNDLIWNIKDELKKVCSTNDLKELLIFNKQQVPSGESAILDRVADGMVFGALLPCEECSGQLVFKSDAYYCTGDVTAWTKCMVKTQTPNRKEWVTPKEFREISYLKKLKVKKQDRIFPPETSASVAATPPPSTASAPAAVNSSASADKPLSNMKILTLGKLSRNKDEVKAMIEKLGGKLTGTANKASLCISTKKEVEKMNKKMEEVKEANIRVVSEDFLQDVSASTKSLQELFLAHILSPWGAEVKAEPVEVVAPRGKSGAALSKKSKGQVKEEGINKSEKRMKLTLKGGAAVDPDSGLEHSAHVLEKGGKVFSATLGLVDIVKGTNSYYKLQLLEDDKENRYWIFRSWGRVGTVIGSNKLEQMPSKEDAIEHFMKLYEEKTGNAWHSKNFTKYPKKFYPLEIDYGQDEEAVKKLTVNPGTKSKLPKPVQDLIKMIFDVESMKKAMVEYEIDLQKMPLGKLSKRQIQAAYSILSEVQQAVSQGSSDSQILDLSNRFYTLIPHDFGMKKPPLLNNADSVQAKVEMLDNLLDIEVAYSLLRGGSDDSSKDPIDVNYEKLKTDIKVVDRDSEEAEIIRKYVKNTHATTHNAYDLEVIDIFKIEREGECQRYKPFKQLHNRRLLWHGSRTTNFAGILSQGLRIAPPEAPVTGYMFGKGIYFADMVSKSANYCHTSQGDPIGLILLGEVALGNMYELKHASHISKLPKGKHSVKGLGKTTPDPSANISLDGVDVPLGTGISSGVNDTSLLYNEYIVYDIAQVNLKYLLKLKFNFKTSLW

IC50 | Compound
0.4 µM | CCc1cc(-c2cccc(C#N)c2)c(C)[nH]c1=O [Example 1, 3-(5-Ethyl-2-methyl-6-oxo-1,6-dihydropyridin-3-yl)benzonitrile]
4.5 µM | CCc1cc(-c2ccc(CN3CCOCC3)c(C#N)c2)c(C)[nH]c1=O [Example 2, 5-(5-Ethyl-2-methyl-6-oxo-1,6-dihydropyridin-3-yl)-2-(morpholin-4-yl)methylbenzonitrile]
1.6 µM | CCc1cc(-n2nccn2)c(C)[nH]c1=O [Example 12, 3-Ethyl-6-methyl-5-(1,2,3-triazol-2-yl)-1H-pyridin-2-one]
2.1 µM | CCc1cc(-n2ccnn2)c(C)[nH]c1=O [Example 13, 3-Ethyl-6-methyl-5-(1,2,3-triazol-1-yl)-1H-pyridin-2-one]
0.56 µM | CCc1cc(-c2nnco2)c(C)[nH]c1=O [Example 14, 3-Ethyl-6-methyl-5-(1,3,4-oxadiazol-2-yl)-1H-pyridin-2-one]
0.72 µM | CCc1cc(-c2nnc(C)o2)c(C)[nH]c1=O [Example 15, 3-Ethyl-6-methyl-5-(5-methyl-1,3,4-oxadiazol-2-yl)-1H-pyridin-2-one]
0.35 µM | CCc1cc(-c2nc[nH]n2)c(C)[nH]c1=O [Example 16, 3-Ethyl-6-methyl-5-(2H-1,2,4-triazol-3-yl)-1H-pyridin-2-one]
1.7 µM | CCc1cc(-c2ncnn2C)c(C)[nH]c1=O [Example 17, 3-Ethyl-6-methyl-5-(2-methyl-2H-1,2,4-triazol-3-yl)-1H-pyridin-2-one]
0.65 µM | CCc1cc(-c2ncno2)c(C)[nH]c1=O [Example 18, 3-Ethyl-6-methyl-5-(1,2,4-oxadiazol-5-yl)-1H-pyridin-2-one]
0.23 µM | CCc1cc(-c2nc(C)no2)c(C)[nH]c1=O [Example 19, 3-Ethyl-6-methyl-5-(3-methyl-1,2,4-oxadiazol-5-yl)-1H-pyridin-2-one]
1.1 µM | CCc1cc(-c2nc(C)nn2C)c(C)[nH]c1=O [Example 20, 5-(2,5-Dimethyl-2H-1,2,4-triazol-3-yl)-3-ethyl-6-methyl-1H-pyridin-2-one]
0.17 µM | CCc1cc(-c2n[nH]c(C)n2)c(C)[nH]c1=O [Example 21, 3-Ethyl-6-methyl-5-(5-methyl-2H-1,2,4-triazol-3-yl)-1H-pyridin-2-one]
0.67 µM | CCc1cc(-c2ncon2)c(C)[nH]c1=O [Example 23, 3-Ethyl-6-methyl-5-(1,2,4-oxadiazol-3-yl)-1H-pyridin-2-one]
0.63 µM | CCc1cc(-c2ccc(S(=O)(=O)N3CCN(c4ccccc4)CC3)s2)c(C)[nH]c1=O [Example 24, 3-Ethyl-6-methyl-5-[5-(4-phenylpiperazine-1-sulfonyl)thiophen-2-yl]-1H-pyridin-2-one]
0.72 µM | CCc1cc(-c2ccc(S(=O)(=O)N(C)C)s2)c(C)[nH]c1=O [Example 28, 5-(5-Ethyl-2-methyl-6-oxo-1,6-dihydropyridin-3-yl)thiophene-2-sulfonic acid dimethylamide]
0.57 µM | CCc1cc(-c2ccc(S(=O)(=O)N(C)Cc3cc(F)cc(F)c3)s2)c(C)[nH]c1=O [Example 29, 5-(5-Ethyl-2-methyl-6-oxo-1,6-dihydropyridin-3-yl)thiophene-2-sulfonic acid (3,5-difluorobenzyl)methylamide]
10 µM | CCc1cc(-c2ccc(S(=O)(=O)NCCCN3CCC(O)C3)s2)c(C)[nH]c1=O (centres unmarked) [Example 30, 5-(5-Ethyl-2-methyl-6-oxo-1,6-dihydro-pyridin-3-yl)-thiophene-2-sulfonic acid [3-(3-hydroxy-pyrrolidin-1-yl)-propyl]-amide hydrochloride]
2.9 µM | CCc1cc(-c2ccc(S(=O)(=O)NCCNc3ccccc3)s2)c(C)[nH]c1=O [Example 32, 5-(5-Ethyl-2-methyl-6-oxo-1,6-dihydropyridin-3-yl)thiophene-2-sulfonic acid 2-phenylaminoethylamide hydrochloride]
10.5 µM | CCc1cc(-c2ccc(S(=O)(=O)NCCOC)s2)c(C)[nH]c1=O [Example 33, 5-(5-Ethyl-2-methyl-6-oxo-1,6-dihydropyridin-3-yl)thiophene-2-sulfonic acid (2-methoxyethyl)amide]
4.5 µM | CCc1cc(-c2ccc(S(=O)(=O)NCCCN(C)C)s2)c(C)[nH]c1=O [Example 34, 5-(5-Ethyl-2-methyl-6-oxo-1,6-dihydropyridin-3-yl)thiophene-2-sulfonic acid (3-dimethylaminopropyl)amide hydrochloride]
10.9 µM | CCc1cc(-c2ccc(S(=O)(=O)NCc3ccc(C)o3)s2)c(C)[nH]c1=O [Example 35, 5-(5-Ethyl-2-methyl-6-oxo-1,6-dihydropyridin-3-yl)thiophene-2-sulfonic acid (5-methylfuran-2-yl)methylamide]
3.7 µM | CCc1cc(-c2ccc(S(=O)(=O)NCCC3CCCN3C)s2)c(C)[nH]c1=O (centres unmarked) [Example 36, 5-(5-Ethyl-2-methyl-6-oxo-1,6-dihydropyridin-3-yl)thiophene-2-sulfonic Acid [2-(1-methylpyrrolidin-2-yl)ethyl]amide hydrochloride]
2 µM | CCc1cc(-c2ccc(S(=O)(=O)N(C)CC(O)c3ccccc3)s2)c(C)[nH]c1=O (centres unmarked) [Example 37, 5-(5-Ethyl-2-methyl-6-oxo-1,6-dihydropyridin-3-yl)thiophene-2-sulfonic acid (2-hydroxy-2-phenylethyl)methylamide]
0.77 µM | CCc1cc(-c2ccc(S(=O)(=O)NCCN3CCOCC3)s2)c(C)[nH]c1=O [Example 38, 5-(5-Ethyl-2-methyl-6-oxo-1,6-dihydropyridin-3-yl)thiophene-2-sulfonic acid (2-morpholin-4-yl)ethylamide hydrochloride]
1.5 µM | CCc1cc(-c2ccc(S(=O)(=O)NCC3CCN(C(=O)OC(C)(C)C)CC3)s2)c(C)[nH]c1=O [Example 41-1, 5-(5-Ethyl-2-methyl-6-oxo-1,6-dihydropyridin-3-yl)thiophene-2-sulfonic acid (1-tert-butyloxycarbonylpiperidin-4-yl)methylamide]
0.52 µM | CCc1cc(-c2ccc(S(=O)(=O)NCC3CCNCC3)s2)c(C)[nH]c1=O [Example 41-2, 5-[5-Ethyl-2-methyl-6-oxo-(1,6-dihydropyridin-3-yl)]thiophene-2-sulfonic acid (piperidin-4-yl)methylamide hydrochloride]
0.22 µM | CCc1cc(-c2ccc(S(=O)(=O)N3CCN(c4ccncc4)CC3)o2)c(C)[nH]c1=O [Example 45, 3-Ethyl-6-methyl-5-{5-[(4-pyridin-4-yl)piperazine-1-sulfonyl]furan-2-yl}-1H-pyridin-2-one hydrochloride]
0.46 µM | CCc1cc(-c2ccc(S(=O)(=O)NC3CCN(Cc4ccccc4)CC3)o2)c(C)[nH]c1=O [Example 46, 5-(5-Ethyl-2-methyl-6-oxo-1,6-dihydropyridin-3-yl)furan-2-sulfonic acid (1-benzylpiperidin-4-yl)amide hydrochloride]

Compound | IC50
5-(5-Ethyl-2-methyl-6-oxo-1,6-dihydropyridin-3-yl)thiophene-2-sulfonic acid (2-1′-[5-(5-ethyl-2-methyl-6-oxo-1,6-dihydropyridin-3-yl)thiophene-2-sulfonyl]-1H-imidazol-4-yl}ethyl)amide hydrochloride [Example 40] | 0.13 µM
